Experiments:
[1] = target: FES/FPS (Homo sapiens, UniProt P07332); conditions: 1 μM; Run 1, Run 2
[2] = target: FRK/PTK5 (Homo sapiens, UniProt P42685); conditions: 1 μM; Run 1, Run 2
[3] = target: HIPK2 (Homo sapiens, UniProt Q9H2X6); conditions: 1 μM; Run 1, Run 2
[4] = target: T1, RIPK5 (Homo sapiens, UniProt Q6XUX3); conditions: 1 μM; Run 1, Run 2
T1 sequence (Q6XUX3 1-929): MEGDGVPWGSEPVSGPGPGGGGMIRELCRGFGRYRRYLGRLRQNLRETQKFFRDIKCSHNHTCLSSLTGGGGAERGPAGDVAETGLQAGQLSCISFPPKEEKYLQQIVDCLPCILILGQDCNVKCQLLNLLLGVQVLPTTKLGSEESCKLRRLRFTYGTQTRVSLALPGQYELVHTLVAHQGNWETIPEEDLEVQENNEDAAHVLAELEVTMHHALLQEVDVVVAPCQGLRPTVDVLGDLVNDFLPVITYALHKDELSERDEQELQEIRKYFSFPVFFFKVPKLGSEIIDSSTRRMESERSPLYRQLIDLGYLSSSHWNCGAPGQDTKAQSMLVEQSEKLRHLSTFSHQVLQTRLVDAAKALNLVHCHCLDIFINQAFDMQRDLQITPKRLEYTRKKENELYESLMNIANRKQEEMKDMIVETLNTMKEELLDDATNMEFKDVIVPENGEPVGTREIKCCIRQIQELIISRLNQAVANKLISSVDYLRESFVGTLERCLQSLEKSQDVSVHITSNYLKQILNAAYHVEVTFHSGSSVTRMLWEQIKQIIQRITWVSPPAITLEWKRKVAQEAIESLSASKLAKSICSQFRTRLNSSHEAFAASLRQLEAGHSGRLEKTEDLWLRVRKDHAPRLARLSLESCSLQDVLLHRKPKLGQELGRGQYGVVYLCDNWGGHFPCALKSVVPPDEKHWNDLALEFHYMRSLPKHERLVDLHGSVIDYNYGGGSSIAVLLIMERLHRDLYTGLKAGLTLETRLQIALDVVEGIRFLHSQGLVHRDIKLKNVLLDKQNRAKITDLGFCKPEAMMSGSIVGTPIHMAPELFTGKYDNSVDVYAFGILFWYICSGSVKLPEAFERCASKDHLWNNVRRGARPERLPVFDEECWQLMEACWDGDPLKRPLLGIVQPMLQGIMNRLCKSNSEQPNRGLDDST

[5] = target: CAMKK2 (Homo sapiens, UniProt Q96RR4); assay: biochemical; conditions: read-out: % enzyme activity, 1 μM; Run 1, Run 2
[6] = target: CDK9/cyclin T2 (Homo sapiens, UniProt P50750); assay: biochemical; conditions: read-out: % enzyme activity, 1 μM; Run 1, Run 2
[7] = target: CSK (Homo sapiens, UniProt P41240); assay: biochemical; conditions: read-out: % enzyme activity, 1 μM; Run 1, Run 2
[8] = target: T2, DCAMKL1 (Homo sapiens, UniProt O15075); assay: biochemical; conditions: read-out: % enzyme activity, 1 μM; Run 1, Run 2
T2 sequence (O15075 1-740): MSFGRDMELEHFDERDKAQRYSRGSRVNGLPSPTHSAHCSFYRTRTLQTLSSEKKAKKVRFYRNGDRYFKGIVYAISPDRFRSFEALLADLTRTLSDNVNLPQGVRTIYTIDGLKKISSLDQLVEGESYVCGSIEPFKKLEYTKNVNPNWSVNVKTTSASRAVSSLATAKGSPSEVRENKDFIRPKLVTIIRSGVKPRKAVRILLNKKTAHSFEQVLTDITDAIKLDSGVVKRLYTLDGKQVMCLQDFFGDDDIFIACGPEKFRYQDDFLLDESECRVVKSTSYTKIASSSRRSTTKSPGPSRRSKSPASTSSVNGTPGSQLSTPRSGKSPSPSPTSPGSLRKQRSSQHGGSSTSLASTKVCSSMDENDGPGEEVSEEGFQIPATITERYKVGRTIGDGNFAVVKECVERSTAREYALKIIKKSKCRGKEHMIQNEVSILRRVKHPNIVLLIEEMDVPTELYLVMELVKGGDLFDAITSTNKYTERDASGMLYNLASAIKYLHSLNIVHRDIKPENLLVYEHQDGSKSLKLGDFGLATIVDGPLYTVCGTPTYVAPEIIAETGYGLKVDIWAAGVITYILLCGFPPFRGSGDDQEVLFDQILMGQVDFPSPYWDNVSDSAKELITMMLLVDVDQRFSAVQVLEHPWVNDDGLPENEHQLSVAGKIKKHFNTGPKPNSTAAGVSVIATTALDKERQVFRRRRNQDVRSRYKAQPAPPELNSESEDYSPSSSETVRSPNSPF

[9] = target: T3, EPHB1 (Homo sapiens, UniProt P54762); assay: biochemical; conditions: read-out: % enzyme activity, 1 μM; Run 1, Run 2
T3 sequence (P54762 18-984): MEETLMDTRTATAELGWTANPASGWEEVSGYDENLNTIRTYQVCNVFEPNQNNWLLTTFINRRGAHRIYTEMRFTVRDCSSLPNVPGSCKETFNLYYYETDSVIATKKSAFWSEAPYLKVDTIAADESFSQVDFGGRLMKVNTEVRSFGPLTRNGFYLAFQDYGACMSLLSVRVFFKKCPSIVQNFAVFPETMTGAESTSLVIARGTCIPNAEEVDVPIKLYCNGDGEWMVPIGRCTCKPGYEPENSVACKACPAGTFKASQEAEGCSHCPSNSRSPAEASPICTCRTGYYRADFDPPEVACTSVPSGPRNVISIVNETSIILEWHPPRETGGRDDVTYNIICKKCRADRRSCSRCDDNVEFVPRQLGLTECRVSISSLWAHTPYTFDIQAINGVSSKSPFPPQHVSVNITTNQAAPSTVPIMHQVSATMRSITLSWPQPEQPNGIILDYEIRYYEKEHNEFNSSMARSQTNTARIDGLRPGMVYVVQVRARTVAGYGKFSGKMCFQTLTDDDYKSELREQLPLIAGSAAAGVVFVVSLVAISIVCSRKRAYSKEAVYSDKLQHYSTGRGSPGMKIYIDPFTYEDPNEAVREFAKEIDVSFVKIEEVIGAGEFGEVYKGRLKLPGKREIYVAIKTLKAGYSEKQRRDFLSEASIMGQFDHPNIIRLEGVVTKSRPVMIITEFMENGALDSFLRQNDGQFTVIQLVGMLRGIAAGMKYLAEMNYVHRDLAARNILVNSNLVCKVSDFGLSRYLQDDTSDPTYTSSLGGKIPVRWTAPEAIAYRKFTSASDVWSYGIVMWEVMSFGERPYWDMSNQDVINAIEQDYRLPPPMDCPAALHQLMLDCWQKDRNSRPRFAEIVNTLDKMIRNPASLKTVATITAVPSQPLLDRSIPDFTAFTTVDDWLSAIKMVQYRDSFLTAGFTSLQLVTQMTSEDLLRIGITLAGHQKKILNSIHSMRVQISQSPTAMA

HIPK2, sequence (Q9H2X6 whole entry): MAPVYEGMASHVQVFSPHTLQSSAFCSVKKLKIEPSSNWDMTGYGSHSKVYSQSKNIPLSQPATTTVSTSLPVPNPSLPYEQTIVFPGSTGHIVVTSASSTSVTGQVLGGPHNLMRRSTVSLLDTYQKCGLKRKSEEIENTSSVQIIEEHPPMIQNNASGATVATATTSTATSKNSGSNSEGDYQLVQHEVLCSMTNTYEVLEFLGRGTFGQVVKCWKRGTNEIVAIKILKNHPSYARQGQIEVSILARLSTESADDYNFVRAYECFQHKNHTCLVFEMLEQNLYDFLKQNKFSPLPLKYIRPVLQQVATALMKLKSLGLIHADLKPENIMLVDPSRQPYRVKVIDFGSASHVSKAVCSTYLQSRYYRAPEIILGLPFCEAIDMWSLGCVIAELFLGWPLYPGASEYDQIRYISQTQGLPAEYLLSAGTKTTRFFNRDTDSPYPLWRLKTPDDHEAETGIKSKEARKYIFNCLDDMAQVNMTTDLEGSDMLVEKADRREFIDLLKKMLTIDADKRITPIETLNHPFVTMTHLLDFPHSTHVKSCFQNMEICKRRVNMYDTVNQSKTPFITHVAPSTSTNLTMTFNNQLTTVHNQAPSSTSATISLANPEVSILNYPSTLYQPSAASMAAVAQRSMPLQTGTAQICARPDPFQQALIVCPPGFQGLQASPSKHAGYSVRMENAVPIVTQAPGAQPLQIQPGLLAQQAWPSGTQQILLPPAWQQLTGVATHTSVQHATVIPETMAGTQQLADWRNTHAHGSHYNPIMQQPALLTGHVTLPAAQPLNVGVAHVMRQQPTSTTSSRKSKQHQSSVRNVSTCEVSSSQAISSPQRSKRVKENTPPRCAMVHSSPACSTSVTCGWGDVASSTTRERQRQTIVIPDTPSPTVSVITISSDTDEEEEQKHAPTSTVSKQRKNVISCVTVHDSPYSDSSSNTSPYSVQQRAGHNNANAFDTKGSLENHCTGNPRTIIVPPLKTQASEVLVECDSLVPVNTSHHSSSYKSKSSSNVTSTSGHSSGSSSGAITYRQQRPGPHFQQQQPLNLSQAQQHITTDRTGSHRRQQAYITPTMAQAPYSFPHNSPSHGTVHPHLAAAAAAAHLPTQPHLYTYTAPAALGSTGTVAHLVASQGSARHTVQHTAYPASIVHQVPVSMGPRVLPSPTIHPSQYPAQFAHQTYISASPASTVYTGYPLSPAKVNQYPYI
CSK, sequence (P41240 whole entry): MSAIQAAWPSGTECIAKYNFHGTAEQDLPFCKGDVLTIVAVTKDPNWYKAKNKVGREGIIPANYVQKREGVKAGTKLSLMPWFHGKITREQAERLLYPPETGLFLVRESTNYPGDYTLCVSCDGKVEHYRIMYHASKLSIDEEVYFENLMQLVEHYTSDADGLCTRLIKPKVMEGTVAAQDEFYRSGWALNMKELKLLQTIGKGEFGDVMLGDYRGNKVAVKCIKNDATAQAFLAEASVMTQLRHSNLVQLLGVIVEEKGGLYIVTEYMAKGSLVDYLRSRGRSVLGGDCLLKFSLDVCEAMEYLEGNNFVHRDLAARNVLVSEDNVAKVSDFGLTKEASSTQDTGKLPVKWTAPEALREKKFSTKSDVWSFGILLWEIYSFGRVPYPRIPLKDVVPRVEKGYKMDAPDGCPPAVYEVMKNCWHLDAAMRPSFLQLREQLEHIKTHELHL
CAMKK2, sequence (Q96RR4 whole entry): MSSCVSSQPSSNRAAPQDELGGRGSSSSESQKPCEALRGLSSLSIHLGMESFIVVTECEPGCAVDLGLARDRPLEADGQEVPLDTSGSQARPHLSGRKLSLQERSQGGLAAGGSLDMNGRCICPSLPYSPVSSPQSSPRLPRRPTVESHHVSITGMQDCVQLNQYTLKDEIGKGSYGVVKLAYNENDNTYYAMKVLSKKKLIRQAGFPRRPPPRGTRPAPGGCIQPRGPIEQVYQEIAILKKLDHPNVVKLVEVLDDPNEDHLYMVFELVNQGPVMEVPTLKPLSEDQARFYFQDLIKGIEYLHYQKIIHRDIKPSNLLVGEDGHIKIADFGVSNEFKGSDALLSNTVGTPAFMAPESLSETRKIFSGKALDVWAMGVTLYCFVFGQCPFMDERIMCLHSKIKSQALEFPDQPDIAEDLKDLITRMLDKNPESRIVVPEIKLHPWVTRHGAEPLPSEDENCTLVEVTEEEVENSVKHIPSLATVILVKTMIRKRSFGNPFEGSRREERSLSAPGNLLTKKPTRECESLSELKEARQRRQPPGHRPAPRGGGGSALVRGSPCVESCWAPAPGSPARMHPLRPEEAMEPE
FES/FPS, sequence (P07332 whole entry): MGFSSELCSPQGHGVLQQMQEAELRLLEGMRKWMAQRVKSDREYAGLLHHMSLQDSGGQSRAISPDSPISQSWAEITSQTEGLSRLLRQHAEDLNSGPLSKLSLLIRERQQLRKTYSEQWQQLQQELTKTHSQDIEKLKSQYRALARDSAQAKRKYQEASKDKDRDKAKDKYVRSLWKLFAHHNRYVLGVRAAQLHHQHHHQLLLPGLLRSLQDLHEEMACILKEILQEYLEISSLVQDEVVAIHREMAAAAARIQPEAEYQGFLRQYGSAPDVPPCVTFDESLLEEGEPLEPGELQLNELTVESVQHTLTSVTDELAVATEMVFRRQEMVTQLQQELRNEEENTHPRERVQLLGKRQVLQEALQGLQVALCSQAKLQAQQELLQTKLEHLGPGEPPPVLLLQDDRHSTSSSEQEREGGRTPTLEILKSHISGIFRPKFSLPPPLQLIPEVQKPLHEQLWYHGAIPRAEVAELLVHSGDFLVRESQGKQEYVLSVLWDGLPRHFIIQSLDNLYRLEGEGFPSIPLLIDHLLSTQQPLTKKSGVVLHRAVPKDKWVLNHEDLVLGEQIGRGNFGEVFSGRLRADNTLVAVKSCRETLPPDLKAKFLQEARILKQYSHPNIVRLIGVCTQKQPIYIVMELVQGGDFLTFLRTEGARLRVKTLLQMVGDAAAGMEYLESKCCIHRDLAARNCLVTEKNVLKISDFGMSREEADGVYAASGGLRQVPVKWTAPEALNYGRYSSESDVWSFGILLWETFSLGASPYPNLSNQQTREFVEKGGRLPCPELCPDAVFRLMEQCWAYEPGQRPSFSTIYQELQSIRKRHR
FRK/PTK5, sequence (P42685 whole entry): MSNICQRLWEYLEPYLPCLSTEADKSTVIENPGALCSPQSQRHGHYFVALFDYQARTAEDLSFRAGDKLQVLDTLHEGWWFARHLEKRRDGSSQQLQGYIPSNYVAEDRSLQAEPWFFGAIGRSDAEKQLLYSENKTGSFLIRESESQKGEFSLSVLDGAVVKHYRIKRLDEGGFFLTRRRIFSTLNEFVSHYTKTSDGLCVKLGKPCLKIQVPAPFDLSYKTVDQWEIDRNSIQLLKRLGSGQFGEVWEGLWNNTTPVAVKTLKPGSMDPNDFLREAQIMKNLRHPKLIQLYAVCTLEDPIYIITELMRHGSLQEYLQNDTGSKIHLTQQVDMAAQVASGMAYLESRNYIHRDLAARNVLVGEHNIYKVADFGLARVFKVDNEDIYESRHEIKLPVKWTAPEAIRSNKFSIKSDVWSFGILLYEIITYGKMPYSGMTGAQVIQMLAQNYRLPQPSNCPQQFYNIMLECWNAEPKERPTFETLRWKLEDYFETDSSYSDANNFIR
CDK9/cyclin T2, sequence (P50750 whole entry): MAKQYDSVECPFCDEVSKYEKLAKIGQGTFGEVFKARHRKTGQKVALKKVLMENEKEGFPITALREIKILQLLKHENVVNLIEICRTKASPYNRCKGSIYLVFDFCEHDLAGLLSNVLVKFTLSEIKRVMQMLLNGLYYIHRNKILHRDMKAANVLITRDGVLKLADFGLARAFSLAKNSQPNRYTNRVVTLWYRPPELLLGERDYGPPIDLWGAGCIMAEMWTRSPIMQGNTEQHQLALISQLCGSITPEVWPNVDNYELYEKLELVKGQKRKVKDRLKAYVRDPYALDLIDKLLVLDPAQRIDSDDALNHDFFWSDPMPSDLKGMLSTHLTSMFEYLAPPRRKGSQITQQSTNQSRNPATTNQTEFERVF
CDK9/cyclin T2, sequence (O60583 whole entry partner): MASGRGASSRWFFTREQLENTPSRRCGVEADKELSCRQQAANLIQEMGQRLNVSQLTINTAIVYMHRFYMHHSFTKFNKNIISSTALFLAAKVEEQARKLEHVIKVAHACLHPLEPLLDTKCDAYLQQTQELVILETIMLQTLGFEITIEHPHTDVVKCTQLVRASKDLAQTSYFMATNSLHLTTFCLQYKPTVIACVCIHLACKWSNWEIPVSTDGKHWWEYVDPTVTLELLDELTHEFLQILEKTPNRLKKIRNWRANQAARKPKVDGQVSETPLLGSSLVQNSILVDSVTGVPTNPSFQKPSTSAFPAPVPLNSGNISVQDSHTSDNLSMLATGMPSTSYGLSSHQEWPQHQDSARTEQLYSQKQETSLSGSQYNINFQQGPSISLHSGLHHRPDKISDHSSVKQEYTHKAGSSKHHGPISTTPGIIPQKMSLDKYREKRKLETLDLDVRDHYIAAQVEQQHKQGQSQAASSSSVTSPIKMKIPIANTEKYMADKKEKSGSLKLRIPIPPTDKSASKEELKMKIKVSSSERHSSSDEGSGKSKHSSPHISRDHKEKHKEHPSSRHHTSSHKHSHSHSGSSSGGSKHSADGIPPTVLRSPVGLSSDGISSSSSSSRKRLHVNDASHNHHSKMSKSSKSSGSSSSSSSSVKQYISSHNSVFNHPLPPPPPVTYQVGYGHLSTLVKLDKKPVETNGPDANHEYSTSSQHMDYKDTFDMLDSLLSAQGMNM

Compound | % enzyme activity [1] | % enzyme activity [2] | % enzyme activity [3] | % enzyme activity [4] | remaining activity at 1 µM [5] | remaining activity at 1 µM [6] | remaining activity at 1 µM [7] | remaining activity at 1 µM [8] | remaining activity at 1 µM [9]
COc1cc(-c2cncc(-c3ccc(N4CCN(C)CC4)cc3)c2C)cc(F)c1C(N)=O [Compound 26a, 2-Fluoro-6-methoxy-4-(4-methyl-5-(4-(4-methylpiperazin-1-yl)phenyl)pyridin-3-yl)benzamide] | 99.20% | 95.48% | 97.88% | 82.21% | 71.7% | 100% | 99.5% | 81.8% | 95.5%
COc1cc(-c2cncc(-c3ccc(N4C[C@@H](C)N(C)[C@@H](C)C4)cc3)c2C)cc(F)c1C(N)=O [Compound 26c, 2-Fluoro-6-methoxy-4-(4-methyl-5-(4-((3R,5S)-3,4,5-trimethylpiperazin-1-yl)phenyl)pyridin-3-yl)benzamide] | 98.66% | 95.52% | 101.85% | 86.47% | 76.4% | 102% | 104% | 89.1% | 92.6%

From article PMC8213057, “Targeting ALK2: An Open Science Approach to Developing Therapeutics for the Treatment of Diffuse Intrinsic Pontine Glioma” (Journal of Medicinal Chemistry, 2020)
